Columns and labels:
IL-1β = experiment: Effect on IL-1β expression in LPS-stimulated RAW 264.7 macrophages; format: cell-based; settings: RAW 264.7 mouse macrophages, dosed at 50 μM and 100 μM, 100 ng/ml LPS stimulation, FIG. 1
Description: RAW264.7 macrophages were seeded at a density of 100,000 cells/well in a 96-well plate in DMEM supplemented with 10% FBS and Penn/strep. 16 hours later, medium was aspirated and replaced with 90 μL/well of serum-free DMEM. Test compounds were brought up in 100% EtOH to a concentration of 100 mM and then diluted 1:100 in 100% FBS for a stock solution consisting of 1mM compound and 1% EtOH. These stock solutions were then diluted 1:10 in FBS supplemented with 1% EtOH to generate a 100 μM of the test compounds. 10 μL was then added to the RAW246.7 cells to generate final concentrations consisting of 10 μM of the fatty acid mycophenolate conjugate, along with vehicle only control. The compounds were allowed to pre-incubate for 2 hours before stimulation of 100 ng/ml LPS (10 μL of 1 μg/ml LPS was added to each well). Following 3 hours of LPS stimulation, cells were washed once in 1 ×PBS, aspirated dry, and flash frozen in liquid nitrogen. RNA was then isolated and converted to cDNA using the Cells to cDNA kit (Ambion) according to the manufacturer's protocol. IL-1β transcript levels were then measured using Taqman primer/probe assay sets (Applied Biosystems), normalized to GAPDH using the deltaCt method, and the data expressed relative to vehicle only control. FIG. 1 summarizes the effects of compounds I-1, I-2, I-5, and I-10 on the expression of IL-1β in RAW 264.7 mouse macrophages. All four compounds were dosed at 50 μM and 100 μM.

[1] = system: (NZB X NZW)F1 mouse model of systemic lupus erythematosus; settings: 200 mg/kg/day over a 6 week period; cited from earlier work
[2] = system: SLE-prone MRLlpr/lpr mice; settings: 100 mg/kg in drinking water; cited from earlier work
[3] = system: systemic lupus erythematosus patients; settings: mean dose of 1,328 mg/a day over a 1 or 2 year period; cited from earlier work

Row | Structure (SMILES) | IL-1β expression (transcript level relative to vehicle only control) (IL-1β) | autoimmunity and mortality [1] | survival, C3 deposition in glomeruli, albuminuria and haematuria [2] | disease flares [3]
1 | CC/C=C\C/C=C\C/C=C\C/C=C\C/C=C\C/C=C\CCC(=O)NCCOCCNC(=O)CC/C(C)=C/Cc1c(O)c2c(c(C)c1OC)COC2=O [Compound I-2, (4Z,7Z,10Z,13Z,16Z,19Z)-N-(2-(2((E)-6-(4-hydroxy-6-methoxy-7-methyl-3-oxo-1,3-dihydroisobenzofuran-5-yl)-4-methylhex-4-enamido)ethoxy)ethyl)docosa-4,7,10,13,16,19-hexaenamide] | statistically significant decrease in IL-1β expression |  |  | 
2 | CC/C=C\C/C=C\C/C=C\C/C=C\C/C=C\CCCC(=O)NCCNC(=O)CC/C(C)=C/Cc1c(O)c2c(c(C)c1OC)COC2=O [Compound I-10, (5Z,8Z,11Z,14Z,17Z)-N-(2-((E)-6-(4-hydroxy-6-methoxy-7-methyl-3-oxo-1,3-dihydroisobenzofuran-5-yl)-4-methylhex-4-enamido)ethyl)icosa-5,8,11,14,17-pentaenamide] | statistically significant decrease in IL-1β expression |  |  | 
3 | CC/C=C\C/C=C\C/C=C\C/C=C\C/C=C\C/C=C\CCC(=O)NCCSSCCNC(=O)CC/C(C)=C/Cc1c(O)c2c(c(C)c1OC)COC2=O [Compound I-5, (4Z,7Z,10Z,13Z,16Z,19Z)-N-(2-(2-(2-((E)-6-(4-hydroxy-6-methoxy-7-methyl-3-oxo-1,3-dihydroisobenzofuran-5-yl)-4-methylhex-4-enamido)ethyl)disulfanyl)ethyl)docosa-4,7,10,13,16,19-hexaenamide] | statistically significant decrease in IL-1β expression |  |  | 
4 | CC/C=C\C/C=C\C/C=C\C/C=C\C/C=C\C/C=C\CCC(=O)NCCNC(=O)CC/C(C)=C/Cc1c(O)c2c(c(C)c1OC)COC2=O [Compound I-1, (4Z,7Z,10Z,13Z,16Z,19Z)-N-(2((E)-6-(4-hydroxy-6-methoxy-7-methyl-3-oxo-1,3-dihydroisobenzofuran-5-yl)-4-methylhex-4-enamido)ethyl)docosa-4,7,10,13,16,19-hexaenamide] | statistically significant decrease in IL-1β expression |  |  | 
5 | COc1c(C)c2c(c(O)c1C/C=C(\C)CCC(=O)OCCN1CCOCC1)C(=O)OC2 [mycophenolate mofetil] |  | able to suppress autoimmunity and mortality | able to prolong survival, reduce the extent of deposition of C3 in glomeruli and reduce the occurrence of albuminuria and haematuria | effective in reducing disease flares

Source: patent publication US20110213028A1, “FATTY ACID MYCOPHENOLATE DERIVATIVES AND THEIR USES” (CATABASIS PHARMACEUTICALS, INC., priority 2010, published 2011)
